Data from patent US11279733B2, “Peptide antibiotics” (priority 2017, dated 2022).
In brackets after ≈: the same amount, converted by molar mass. Starred links: 1 amine or outer side, 2 acyl side, 3 side chain; linkers in the order of their positions; H or OH if unused. Positions of bridges follow the written chain, without caps; N, C: chain ends. Non-standard residues stand in square brackets, D forms with d. Residues, ends and D or L forms follow the SMILES beside them. *: point of attachment. Decanoyl(3R-OH) = CCCCCCC[C@@H](O)CC(=O)*; azaDab = NCCN(N[*:1])C(=O)[*:2]; dDab = NCC[C@@H](N)C(=O)O; dDap = NC[C@@H](N)C(=O)O; Dab = NCC[C@H](N)C(=O)O

Tests used:
in vitro [1] = conditions: human
Outline: (§1)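 4000 cells/well, 24 h attach (37 °C, 5% CO2); compound 24 h; 5 μM resazurin 2 h, 37 °C; fluorescence ex/em 560/590. CC50 by curve fit.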

[2] = In vitro nephrotoxicity, LDH release from primary human kidney cells; type: cell-based; conditions: pH 7.4
[3] = system: K. pneumoniae ATCC 700603, MDR; conditions: ATCC 700603
Outline: (§2)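 Mid-log cultures grown in Mueller Hinton broth at 37° C were tested by 2-fold broth microdilution at 5×10^5 CFU/mL final. Compounds were dissolved in water and tested over a final range of 32 to 0.015 μg/mL.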

[4] = system: P. aeruginosa GN_043, PmxR
Outline: as §2

K. pneumoniae ATCC 13883 = conditions: ATCC 13883
Outline: as §2

[5] = system: K. pneumoniae ATCC BAA-2146, NDM-1 pos; conditions: ATCC BAA-2146
Outline: as §2

[6] = system: P. aeruginosa GN_105, PmxR; conditions: GN 105, PmxR
Outline: as §2

[7] = system: S. aureus ATCC 25923, MSSA; conditions: ATCC 25923
Outline: as §2

[8] = system: K. pneumoniae GN_102 PmxR; conditions: GN 102 PmxR
Outline: as §2

P. aeruginosa ATCC 27853 = conditions: ATCC 27853
Outline: as §2

A. baumannii ATCC 19606 = conditions: ATCC 19606
Outline: as §2

E. coli ATCC 25922 = conditions: ATCC 25922
Outline: as §2

A. baumannii GN_093 PmxR = conditions: GN 093 PmxR
Outline: as §2

[9] = system: K. pneumoniae GN_106, PmxR; conditions: GN 106, PmxR
Outline: as §2

Neisseria gonorrhoeae = experiment: MIC determination, Neisseria gonorrhoeae; type: cell-based
Outline: as §2

[10] = In vitro nephrotoxicity, GGT release from primary human kidney cells; type: cell-based; conditions: pH 7.4
Outline: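 Primary proximal tubule cells from normal human renal cortex were collagenase-isolated and grown serum-free to 80–90% confluence. GGT release was measured on samples with 2.5 mM γ-glutamyl-p-nitroanilide plus glycylglycine in 50 mM Tris, pH 8.2. p-Nitroanilide formation was read at 410 nm.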

HEK293 cells = experiment: in vitro; conditions: human, 24 h
Outline: as §1

HepG2 cells = experiment: in vitro; conditions: human, 24 h
Outline: as §1

in vitro [11] = conditions: human; remark: listed apart in the source
Outline: as §1

CCCCCCC[C@@H](O)CC(=O)N[C@H](CN)C(=O)N[C@H]1CCNC(=O)[C@H](CC(C)C)NC(=O)[C@H](CCN)NC(=O)[C@H](CCN)NC(=O)[C@H](CC(C)C)NC(=O)[C@@H](Cc2ccccc2)NC(=O)[C@H](CCN)NC1=O [compound 6442, 3(R)OH-nC9CO-D-Dap-cyc[L-Dab-L-Dab-D-Phe-L-Leu-L-Dab-L-Dab-L-Leu]] ({Decanoyl(3R-OH)}-[dDap][Dab][Dab][dF]L[Dab][Dab]L; lactam 2-C)
CC50 at 24 h (in vitro [1]): > 300 µM | CC50 [2]: > 128 µg/mL | MIC, K. pneumoniae ATCC 700603, MDR [3]: 4 µg/mL (≈ 3.88 µM) | MIC P. aeruginosa GN_043, PmxR ([4]; Table 6, polymyxin-resistant): 2 µg/mL (≈ 1.94 µM) | MIC, K. pneumoniae ATCC 13883 (K. pneumoniae ATCC 13883): 4 µg/mL (≈ 3.88 µM) | MIC, K. pneumoniae ATCC BAA-2146, NDM-1 pos [5]: 8 µg/mL (≈ 7.76 µM) | MIC P. aeruginosa GN_105, PmxR [6]: 2 µg/mL (≈ 1.94 µM) | MIC, S. aureus ATCC 25923, MSSA [7]: 16 µg/mL (≈ 15.5 µM) | MIC K. pneumoniae GN_102 PmxR [8]: 2 µg/mL (≈ 1.94 µM) | MIC, P. aeruginosa ATCC 27853 (P. aeruginosa ATCC 27853): 2 µg/mL (≈ 1.94 µM) | MIC, A. baumannii ATCC 19606 (A. baumannii ATCC 19606): 4 µg/mL (≈ 3.88 µM) | MIC, E. coli ATCC 25922 (E. coli ATCC 25922): 2 µg/mL (≈ 1.94 µM) | MIC A. baumannii GN_093 PmxR (A. baumannii GN_093 PmxR): 4 µg/mL (≈ 3.88 µM) | MIC K. pneumoniae GN_106, PmxR [9]: 4 µg/mL (≈ 3.88 µM) | MIC N. gonorrhoeae F89 (Neisseria gonorrhoeae; strain F89): 1.56 µg/mL (≈ 1.51 µM) | MIC N. gonorrhoeae FA19 ATCC BAA-1838 (Neisseria gonorrhoeae; strain FA19 ATCC BAA-1838): 1.56 µg/mL (≈ 1.51 µM) | MIC N. gonorrhoeae FA1090 A25 ATCC 700825 (Neisseria gonorrhoeae; strain FA1090 A25 ATCC 700825): 1.3 µg/mL (≈ 1.26 µM) | MIC N. gonorrhoeae H041 (Neisseria gonorrhoeae; strain H041): 1.56 µg/mL (≈ 1.51 µM) | CC50 [10]: > 128 µg/mL

CCCCCCC[C@@H](O)CC(=O)N[C@H](CCN)C(=O)N[C@H]1CCNC(=O)[C@H](CC(C)C)NC(=O)[C@H](CCN)NC(=O)N(CCN)NC(=O)[C@H](CC(C)C)NC(=O)[C@@H](Cc2ccccc2)NC(=O)[C@H](CCN)NC1=O [compound 8641, 3(R)OH-nC9CO-D-Dab-cyc[L-Dab-L-DAB-D-Phe-L-Leu-azaDab-L-Dab-L-Leu]] ({Decanoyl(3R-OH)}-[dDab][Dab][Dab][dF]L[azaDab][Dab]L; lactam 2-C)
CC50 (HEK293 cells): > 300 µM | CC50 at 24 h (in vitro [1]): > 300 µM | CC50 [2]: > 128 µg/mL | CC50 (HepG2 cells): > 300 µM | CC50 at 24 h (in vitro [11]): > 300 µM | MIC K. pneumoniae ATCC 700603, MDR [3]: 4 µg/mL (≈ 3.83 µM) | MIC, P. aeruginosa FADDI-PA070, PmxR ([4]; strain name as in Table 11): 2 µg/mL (≈ 1.91 µM) | MIC K. pneumoniae ATCC 13883 (K. pneumoniae ATCC 13883): 4 µg/mL (≈ 3.83 µM) | MIC K. pneumoniae ATCC BAA-2146, NDM-1 pos [5]: 8 µg/mL (≈ 7.65 µM) | MIC P. aeruginosa PA9704, PmxR [6]: 2 µg/mL (≈ 1.91 µM) | MIC S. aureus ATCC 25923, MSSA [7]: 32 µg/mL (≈ 30.6 µM) | MIC K. pneumoniae Cl Koprana 10065 0661:1 PmxR [8]: 2 µg/mL (≈ 1.91 µM) | MIC P. aeruginosa ATCC 27853 (P. aeruginosa ATCC 27853): 2 µg/mL (≈ 1.91 µM) | MIC A. baumannii ATCC 19606 (A. baumannii ATCC 19606): 8 µg/mL (≈ 7.65 µM) | MIC E. coli ATCC 25922 (E. coli ATCC 25922): 4 µg/mL (≈ 3.83 µM) | MIC A. baumannii Cl Ptyela 10073 4512:2, PmxR (A. baumannii GN_093 PmxR): 32 µg/mL (≈ 30.6 µM) | MIC K. pneumoniae Cl 183-16357-20352, PmxR [9]: 4 µg/mL (≈ 3.83 µM) | CC50 [10]: > 128 µg/mL
